# Columns and labels:
# Assay type in all cases: biochemical
# [1] = target: ABL1 (Homo sapiens, UniProt P00519); assay: SelectScreen kinase profiling: ABL1; conditions: [ATP] 10 µM
# Protocol: (§1) Effect of the indicated compounds on the activity of various kinases was assessed by SelectScreen Kinase Profiling Service (Invitrogen-Life Technologies, Paisley, UK). Assays were performed using 1 μM of the tested compounds and ATP concentration as indicated in the corresponding tables. In the case of […] a screen using 10 μM of the compound was also carried out, as indicated in the corresponding table.
# [2] = target: AKT2 (PKBβ) (Homo sapiens, UniProt P31751); assay: SelectScreen kinase profiling: AKT2; conditions: for IC50: 10-point titration, [ATP] 200 μM
# Chain of AKT2 (PKBβ) (P31751 whole entry): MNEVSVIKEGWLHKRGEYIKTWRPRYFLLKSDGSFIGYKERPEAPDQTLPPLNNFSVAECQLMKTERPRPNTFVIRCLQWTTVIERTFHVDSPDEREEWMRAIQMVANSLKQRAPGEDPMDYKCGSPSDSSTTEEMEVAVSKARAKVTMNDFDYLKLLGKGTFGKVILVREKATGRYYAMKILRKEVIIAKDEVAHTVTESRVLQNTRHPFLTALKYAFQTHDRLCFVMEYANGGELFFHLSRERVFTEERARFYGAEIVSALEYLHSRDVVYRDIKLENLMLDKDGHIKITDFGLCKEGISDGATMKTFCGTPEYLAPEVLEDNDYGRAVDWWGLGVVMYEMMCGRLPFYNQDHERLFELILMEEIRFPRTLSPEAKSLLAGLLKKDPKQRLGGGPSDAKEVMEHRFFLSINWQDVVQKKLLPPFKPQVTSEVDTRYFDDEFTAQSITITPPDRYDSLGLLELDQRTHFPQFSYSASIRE
# Protocol: as §1
# [3] = target: AMPK A2/B1/G1 (Homo sapiens, UniProt P54646); assay: SelectScreen kinase profiling: AMPK A2/B1/G1; conditions: 1 µM compound; [ATP] 150 µM
# Protocol: as §1
# [4] = target: BRAF (Homo sapiens, UniProt P15056); assay: SelectScreen kinase profiling: BRAF; conditions: [ATP] 100 µM
# Protocol: as §1
# [5] = target: CDC42 BPA (MRCKA) (Homo sapiens, UniProt Q5VT25); assay: SelectScreen kinase profiling: CDC42 BPA; conditions: [ATP] 5 µM
# Protocol: as §1
# [6] = target: CDK1/cyclin B (Homo sapiens, UniProt P06493); assay: SelectScreen kinase profiling: CDK1/cyclin B; conditions: [ATP] 25 µM
# Protocol: as §1
# [7] = target: CDK2/cyclin A (Homo sapiens, UniProt P24941); assay: SelectScreen kinase profiling: CDK2/cyclin A; conditions: [ATP] 25 µM
# Protocol: as §1
# [8] = target: CDK5/p35 (Homo sapiens, UniProt Q00535); assay: SelectScreen kinase profiling: CDK5/p35; conditions: [ATP] 10 µM
# Protocol: as §1
# [9] = target: CLK1 (Homo sapiens, UniProt P49759); assay: SelectScreen kinase profiling: CLK1; conditions: [ATP] 25 µM
# Protocol: as §1
# [10] = target: CSNK1A1 (CK1α1) (Homo sapiens, UniProt P48729); assay: SelectScreen kinase profiling: CSNK1A1; conditions: [ATP] 5 µM
# Protocol: as §1
# [11] = target: CSNK1G1 (CK1γ1) (Homo sapiens, UniProt Q9HCP0); assay: SelectScreen kinase profiling: CSNK1G1; conditions: [ATP] 5 µM
# Protocol: as §1
# [12] = target: CSNK2A2 (CK2α2) (Homo sapiens, UniProt P19784); assay: SelectScreen kinase profiling: CSNK2A2; conditions: [ATP] 50 µM
# Protocol: as §1
# [13] = target: GSK3A (GSK3α) (Homo sapiens, UniProt P49840); assay: SelectScreen kinase profiling: GSK3A; conditions: [ATP] 10 µM
# Protocol: as §1
# [14] = target: GSK3B (GSK3β) (Homo sapiens, UniProt P49841); assay: SelectScreen kinase profiling: GSK3B; conditions: [ATP] 10 µM
# Protocol: as §1
# [15] = target: IRAK4 (Homo sapiens, UniProt Q9NWZ3); assay: SelectScreen kinase profiling: IRAK4; conditions: [ATP] 25 µM
# Protocol: as §1
# [16] = target: JAK1 (Homo sapiens, UniProt P23458); assay: SelectScreen kinase profiling: JAK1; conditions: [ATP] 75 µM
# Protocol: as §1
# [17] = target: MAP2K1 (MEK1) (Homo sapiens, UniProt Q02750); assay: SelectScreen kinase profiling: MAP2K1; conditions: [ATP] 100 µM
# Protocol: as §1
# [18] = target: MAP2K2 (MEK2) (Homo sapiens, UniProt P36507); assay: SelectScreen kinase profiling: MAP2K2; conditions: [ATP] 100 µM
# Protocol: as §1
# [19] = target: MAPK1 (ERK2) (Homo sapiens, UniProt P28482); assay: SelectScreen kinase profiling: MAPK1; conditions: [ATP] 100 µM
# Protocol: as §1
# [20] = target: MAPK14 (p38α) (Homo sapiens, UniProt Q16539); assay: SelectScreen kinase profiling: MAPK14; conditions: 1 µM compound; [ATP] 100 µM
# Protocol: as §1
# [21] = target: MAPK3 (ERK1) (Homo sapiens, UniProt P27361); assay: SelectScreen kinase profiling: MAPK3; conditions: [ATP] 50 µM
# Protocol: as §1
# [22] = target: MAPK8 (JNK1) (Homo sapiens, UniProt P45983); assay: SelectScreen kinase profiling: MAPK8; conditions: [ATP] 100 µM
# Chain of MAPK8 (JNK1) (P45983 whole entry): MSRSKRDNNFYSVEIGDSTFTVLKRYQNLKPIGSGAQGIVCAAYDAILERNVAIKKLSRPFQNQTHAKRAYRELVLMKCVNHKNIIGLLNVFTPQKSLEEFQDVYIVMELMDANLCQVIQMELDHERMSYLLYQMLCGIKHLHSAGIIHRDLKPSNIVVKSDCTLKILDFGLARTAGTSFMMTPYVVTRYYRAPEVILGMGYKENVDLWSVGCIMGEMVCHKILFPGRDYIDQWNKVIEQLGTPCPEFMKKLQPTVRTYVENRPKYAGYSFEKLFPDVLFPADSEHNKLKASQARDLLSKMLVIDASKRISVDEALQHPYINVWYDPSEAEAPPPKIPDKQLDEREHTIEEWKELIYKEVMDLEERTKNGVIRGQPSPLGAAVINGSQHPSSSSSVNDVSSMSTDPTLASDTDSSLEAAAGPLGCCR
# Protocol: as §1
# [23] = target: MAPK9 (JNK2) (Homo sapiens, UniProt P45984); assay: SelectScreen kinase profiling: MAPK9; conditions: [ATP] 100 µM
# Chain of MAPK9 (JNK2) (P45984 whole entry): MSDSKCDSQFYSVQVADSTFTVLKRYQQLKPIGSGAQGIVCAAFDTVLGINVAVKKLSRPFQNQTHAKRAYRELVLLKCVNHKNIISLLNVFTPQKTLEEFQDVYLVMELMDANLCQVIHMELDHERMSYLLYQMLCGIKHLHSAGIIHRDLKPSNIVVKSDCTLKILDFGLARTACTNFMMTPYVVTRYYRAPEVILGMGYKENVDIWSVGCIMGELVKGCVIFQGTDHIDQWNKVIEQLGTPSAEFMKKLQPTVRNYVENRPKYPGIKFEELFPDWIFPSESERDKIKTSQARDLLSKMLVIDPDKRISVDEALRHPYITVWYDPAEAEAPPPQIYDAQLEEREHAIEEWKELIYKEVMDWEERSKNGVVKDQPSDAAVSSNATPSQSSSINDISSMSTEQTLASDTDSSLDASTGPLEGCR
# Protocol: as §1
# [24] = target: PAK6 (Homo sapiens, UniProt Q9NQU5); assay: SelectScreen kinase profiling: PAK6; conditions: [ATP] 10 µM
# Chain of PAK6 (Q9NQU5 whole entry): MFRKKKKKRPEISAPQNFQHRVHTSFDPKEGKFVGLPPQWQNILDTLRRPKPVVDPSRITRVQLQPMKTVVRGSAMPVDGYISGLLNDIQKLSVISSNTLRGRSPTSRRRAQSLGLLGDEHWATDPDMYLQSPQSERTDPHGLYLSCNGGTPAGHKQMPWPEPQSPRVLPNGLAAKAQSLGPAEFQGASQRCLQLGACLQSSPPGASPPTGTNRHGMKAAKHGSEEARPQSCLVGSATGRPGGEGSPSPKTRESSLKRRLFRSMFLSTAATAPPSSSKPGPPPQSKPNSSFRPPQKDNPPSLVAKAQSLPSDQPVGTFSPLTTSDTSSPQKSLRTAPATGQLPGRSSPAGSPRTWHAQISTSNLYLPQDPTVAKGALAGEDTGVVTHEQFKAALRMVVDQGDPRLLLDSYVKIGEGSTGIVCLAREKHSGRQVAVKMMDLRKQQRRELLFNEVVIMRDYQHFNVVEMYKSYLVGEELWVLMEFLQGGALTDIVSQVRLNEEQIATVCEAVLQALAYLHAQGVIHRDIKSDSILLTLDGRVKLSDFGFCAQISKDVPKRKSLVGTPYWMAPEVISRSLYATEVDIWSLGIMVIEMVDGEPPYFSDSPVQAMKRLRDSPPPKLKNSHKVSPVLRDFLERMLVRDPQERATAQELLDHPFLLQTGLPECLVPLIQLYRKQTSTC
# Protocol: as §1
# [25] = target: PRKCA (PKCα) (Homo sapiens, UniProt P17252); assay: SelectScreen kinase profiling: PRKCA; conditions: [ATP] 25 µM
# Protocol: as §1
# [26] = target: PRKCB1 (PKCβI) (Homo sapiens, UniProt P05771); assay: SelectScreen kinase profiling: PRKCB1; conditions: [ATP] 200 µM
# Protocol: as §1
# [27] = target: PRKCD (PKCδ) (Homo sapiens, UniProt Q05655); assay: SelectScreen kinase profiling: PRKCD; conditions: [ATP] 25 µM
# Protocol: as §1
# [28] = target: PRKCZ (PKCζ) (Homo sapiens, UniProt Q05513); assay: SelectScreen kinase profiling: PRKCZ; conditions: [ATP] 5 µM
# Protocol: as §1
# [29] = target: RAF1 (cRAF) Y340D Y341D (Homo sapiens, UniProt P04049, Y340D/Y341D); assay: SelectScreen kinase profiling: RAF1; conditions: [ATP] 100 µM
# Protocol: as §1
# [30] = target: ROCK2 (Homo sapiens, UniProt O75116); assay: SelectScreen kinase profiling: ROCK2; conditions: [ATP] 50 µM
# Protocol: as §1
# [31] = target: RPS6KA1 (RSK1) (Homo sapiens, UniProt Q15418); assay: SelectScreen kinase profiling: RPS6KA1; conditions: [ATP] 5 µM
# Protocol: as §1
# [32] = target: CDK9/cyclin T1 (Homo sapiens, UniProt P50750); assay: SelectScreen kinase profiling: CDK9/cyclin T1; conditions: [ATP] 25 µM
# Chain of CDK9/cyclin T1 (P50750 whole entry): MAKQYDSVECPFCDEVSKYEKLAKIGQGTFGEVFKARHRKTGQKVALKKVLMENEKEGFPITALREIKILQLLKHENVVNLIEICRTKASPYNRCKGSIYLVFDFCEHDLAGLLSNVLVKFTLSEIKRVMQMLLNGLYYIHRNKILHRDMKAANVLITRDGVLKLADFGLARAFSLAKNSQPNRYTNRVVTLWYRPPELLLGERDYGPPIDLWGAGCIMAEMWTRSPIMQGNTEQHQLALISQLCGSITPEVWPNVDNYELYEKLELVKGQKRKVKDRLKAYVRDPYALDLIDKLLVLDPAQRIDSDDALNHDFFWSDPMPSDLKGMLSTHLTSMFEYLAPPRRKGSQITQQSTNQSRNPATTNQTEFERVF
# Chain of CDK9/cyclin T1 (O60563 whole entry partner): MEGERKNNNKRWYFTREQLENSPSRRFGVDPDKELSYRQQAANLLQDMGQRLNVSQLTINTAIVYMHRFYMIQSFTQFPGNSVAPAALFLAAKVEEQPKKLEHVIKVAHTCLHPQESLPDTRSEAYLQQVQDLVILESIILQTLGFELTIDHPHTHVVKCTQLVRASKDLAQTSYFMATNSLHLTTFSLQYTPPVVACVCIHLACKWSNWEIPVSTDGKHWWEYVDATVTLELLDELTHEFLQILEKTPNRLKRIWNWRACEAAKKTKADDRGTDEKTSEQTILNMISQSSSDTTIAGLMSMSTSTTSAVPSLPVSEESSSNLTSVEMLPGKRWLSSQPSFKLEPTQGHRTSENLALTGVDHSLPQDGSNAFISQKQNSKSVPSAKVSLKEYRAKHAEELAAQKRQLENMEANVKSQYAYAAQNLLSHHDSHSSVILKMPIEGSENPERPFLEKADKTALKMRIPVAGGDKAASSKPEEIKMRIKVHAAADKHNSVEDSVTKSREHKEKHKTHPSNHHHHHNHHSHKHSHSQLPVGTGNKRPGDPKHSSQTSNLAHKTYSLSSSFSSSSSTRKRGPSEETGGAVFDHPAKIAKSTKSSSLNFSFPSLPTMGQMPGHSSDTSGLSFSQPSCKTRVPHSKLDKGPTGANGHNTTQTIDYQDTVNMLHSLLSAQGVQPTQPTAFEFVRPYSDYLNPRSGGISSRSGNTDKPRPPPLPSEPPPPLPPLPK
# Protocol: as §1
# [33] = target: CHUK (IKKα) (Homo sapiens, UniProt O15111); assay: SelectScreen kinase profiling: CHUK; conditions: [ATP] 10 µM
# Protocol: as §1
# [34] = target: PI4KB (PI4Kβ) (Homo sapiens, UniProt Q9UBF8); assay: SelectScreen kinase profiling: PI4KB; conditions: [ATP] 5 µM
# Protocol: as §1
# [35] = target: PIK3CD/PIK3R1(p110δ/p85α) (Homo sapiens, UniProt O00329); assay: SelectScreen kinase profiling: PIK3CD/PIK3R1; conditions: [ATP] 25 µM
# Chain of PIK3CD/PIK3R1(p110δ/p85α) (O00329 whole entry): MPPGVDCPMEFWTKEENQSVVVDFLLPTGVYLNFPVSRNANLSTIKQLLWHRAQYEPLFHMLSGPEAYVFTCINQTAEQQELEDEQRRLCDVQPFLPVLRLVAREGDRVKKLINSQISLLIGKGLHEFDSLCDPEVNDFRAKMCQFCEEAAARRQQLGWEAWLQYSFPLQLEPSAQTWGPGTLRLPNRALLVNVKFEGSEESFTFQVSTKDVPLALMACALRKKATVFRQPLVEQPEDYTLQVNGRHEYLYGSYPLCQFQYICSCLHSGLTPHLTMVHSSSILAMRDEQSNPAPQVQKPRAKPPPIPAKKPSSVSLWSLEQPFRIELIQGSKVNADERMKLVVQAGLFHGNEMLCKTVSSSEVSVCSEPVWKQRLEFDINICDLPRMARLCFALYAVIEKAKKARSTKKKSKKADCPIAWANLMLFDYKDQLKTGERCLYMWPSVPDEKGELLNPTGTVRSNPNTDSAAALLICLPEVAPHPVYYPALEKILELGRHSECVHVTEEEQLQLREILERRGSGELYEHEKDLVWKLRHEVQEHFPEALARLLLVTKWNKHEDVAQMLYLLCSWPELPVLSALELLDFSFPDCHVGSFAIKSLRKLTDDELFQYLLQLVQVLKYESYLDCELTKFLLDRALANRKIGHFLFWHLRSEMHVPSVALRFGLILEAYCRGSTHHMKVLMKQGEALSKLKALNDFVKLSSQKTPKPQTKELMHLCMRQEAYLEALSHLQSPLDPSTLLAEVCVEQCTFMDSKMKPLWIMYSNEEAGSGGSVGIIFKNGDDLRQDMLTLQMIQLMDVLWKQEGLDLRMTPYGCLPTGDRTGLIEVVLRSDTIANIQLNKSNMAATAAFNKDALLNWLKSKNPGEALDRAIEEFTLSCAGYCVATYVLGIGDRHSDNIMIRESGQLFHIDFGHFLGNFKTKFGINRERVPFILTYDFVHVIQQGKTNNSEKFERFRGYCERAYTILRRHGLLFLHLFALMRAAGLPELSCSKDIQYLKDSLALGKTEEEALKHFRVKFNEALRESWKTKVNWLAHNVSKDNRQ
# Chain of PIK3CD/PIK3R1(p110δ/p85α) (P27986 whole entry partner): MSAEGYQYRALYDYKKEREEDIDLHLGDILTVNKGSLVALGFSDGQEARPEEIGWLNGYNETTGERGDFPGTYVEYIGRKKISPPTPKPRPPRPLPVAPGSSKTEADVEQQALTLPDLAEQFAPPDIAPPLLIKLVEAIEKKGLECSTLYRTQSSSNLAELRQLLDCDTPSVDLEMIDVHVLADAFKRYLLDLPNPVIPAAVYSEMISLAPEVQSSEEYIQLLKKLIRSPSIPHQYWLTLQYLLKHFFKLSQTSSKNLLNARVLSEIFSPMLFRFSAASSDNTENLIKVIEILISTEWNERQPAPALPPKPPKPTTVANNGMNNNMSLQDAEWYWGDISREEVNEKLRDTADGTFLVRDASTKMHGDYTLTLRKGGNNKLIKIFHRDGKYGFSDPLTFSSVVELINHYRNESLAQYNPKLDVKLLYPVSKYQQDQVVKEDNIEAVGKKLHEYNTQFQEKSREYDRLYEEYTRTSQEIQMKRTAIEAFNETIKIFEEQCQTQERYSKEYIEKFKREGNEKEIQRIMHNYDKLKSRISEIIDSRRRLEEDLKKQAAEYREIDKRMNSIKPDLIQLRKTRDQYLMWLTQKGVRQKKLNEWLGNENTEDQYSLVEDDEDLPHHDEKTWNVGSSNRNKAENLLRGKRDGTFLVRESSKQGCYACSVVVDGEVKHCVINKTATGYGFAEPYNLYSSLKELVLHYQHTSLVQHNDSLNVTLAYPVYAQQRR
# Protocol: as §1
# [36] = target: PIK3CG (p110γ) (Homo sapiens, UniProt P48736); assay: SelectScreen kinase profiling: PIK3CG; conditions: [ATP] 25 µM
# Protocol: as §1
smiles,measurement,setting,value
"O=P(O)(O)OC1C(OCc2ccccc2)C(OP(=O)(O)O)C(OP(=O)(O)O)C(OP(=O)(O)O)C1OP(=O)(O)O (stereo not shown) [2-O-Bn-InsP5, 2-O-benzyl-myo-inositol 1,3,4,5,6-pentakisphosphate]",inhibition at 1 µM,[1]; 1 µM compound,0%
same,inhibition at 1 µM,"[2]; 1 µM compound, [ATP] 200 µM",16%
same,IC50,[2],77 µM
same,inhibition at 1 µM,[3],25%
same,inhibition at 1 µM,[4]; 1 µM compound,5%
same,inhibition at 1 µM,[5]; 1 µM compound,17%
same,inhibition at 1 µM,[6]; 1 µM compound,9%
same,inhibition at 1 µM,[7]; 1 µM compound,2%
same,inhibition at 1 µM,[8]; 1 µM compound,2%
same,inhibition at 1 µM,[9]; 1 µM compound,-4%
same,inhibition at 1 µM,[10]; 1 µM compound,0%
same,inhibition at 1 µM,[11]; 1 µM compound,7%
same,inhibition at 1 µM,[12]; 1 µM compound,2%
same,inhibition at 1 µM,[13]; 1 µM compound,3%
same,inhibition at 1 µM,[14]; 1 µM compound,11%
same,inhibition at 1 µM,[15]; 1 µM compound,-35%
same,inhibition at 1 µM,[16]; 1 µM compound,-1%
same,inhibition at 1 µM,[17]; 1 µM compound,14%
same,inhibition at 1 µM,[18]; 1 µM compound,8%
same,inhibition at 1 µM,[19]; 1 µM compound,6%
same,inhibition at 1 µM,[20],30%
same,inhibition at 1 µM,[21]; 1 µM compound,19%
same,inhibition at 1 µM,[22]; 1 µM compound,24%
same,inhibition at 1 µM,[23]; 1 µM compound,-1%
same,inhibition at 1 µM,[24]; 1 µM compound,9%
same,inhibition at 1 µM,[25]; 1 µM compound,21%
same,inhibition at 1 µM,[26]; 1 µM compound,11%
same,inhibition at 1 µM,[27]; 1 µM compound,9%
same,inhibition at 1 µM,[28]; 1 µM compound,10%
same,inhibition at 1 µM,[29]; 1 µM compound,5%
same,inhibition at 1 µM,[30]; 1 µM compound,13%
same,inhibition at 1 µM,[31]; 1 µM compound,2%
same,inhibition at 1 µM,[32]; 1 µM compound,-11%
same,inhibition at 1 µM,[33]; 1 µM compound,-2%
same,inhibition at 1 µM,[34]; 1 µM compound,0%
same,inhibition at 1 µM,[35]; 1 µM compound,6%
same,inhibition at 1 µM,[36]; 1 µM compound,-41%
"O=P(O)(O)OC1C(O)C(OP(=O)(O)O)C(OP(=O)(O)O)C(OP(=O)(O)O)C1OP(=O)(O)O (stereo not shown) [InsP5, inositol 1,3,4,5,6-pentakisphosphate]",inhibition at 10 µM,[1]; 10 µM compound,-16%
same,IC50,[2],38.3 µM
same,inhibition at 1 µM,[3],7%
same,inhibition at 10 µM,[4]; 10 µM compound,10%
same,inhibition at 10 µM,[5]; 10 µM compound,0%
same,inhibition at 10 µM,[6]; 10 µM compound,16%
same,inhibition at 10 µM,[7]; 10 µM compound,9%
same,inhibition at 10 µM,[8]; 10 µM compound,5%
same,inhibition at 10 µM,[9]; 10 µM compound,9%
same,inhibition at 10 µM,[10]; 10 µM compound,13%
same,inhibition at 10 µM,[11]; 10 µM compound,13%
same,inhibition at 10 µM,[12]; 10 µM compound,18%
same,inhibition at 10 µM,[13]; 10 µM compound,15%
same,inhibition at 10 µM,[14]; 10 µM compound,20%
same,inhibition at 10 µM,[15]; 10 µM compound,-5%
same,inhibition at 10 µM,[16]; 10 µM compound,-2%
same,inhibition at 10 µM,[17]; 10 µM compound,7%
same,inhibition at 10 µM,[18]; 10 µM compound,3%
same,inhibition at 10 µM,[19]; 10 µM compound,8%
same,inhibition at 1 µM,[20],23%
same,inhibition at 10 µM,[21]; 10 µM compound,3%
same,inhibition at 10 µM,[22]; 10 µM compound,14%
same,inhibition at 10 µM,[23]; 10 µM compound,23%
same,inhibition at 10 µM,[24]; 10 µM compound,20%
same,inhibition at 10 µM,[25]; 10 µM compound,30%
same,inhibition at 10 µM,[26]; 10 µM compound,17%
same,inhibition at 10 µM,[27]; 10 µM compound,19%
same,inhibition at 10 µM,[28]; 10 µM compound,-8%
same,inhibition at 10 µM,[29]; 10 µM compound,18%
same,inhibition at 10 µM,[30]; 10 µM compound,15%
same,inhibition at 10 µM,[31]; 10 µM compound,12%
same,inhibition at 10 µM,[32]; 10 µM compound,1%
same,inhibition at 10 µM,[33]; 10 µM compound,3%
same,inhibition at 10 µM,[34]; 10 µM compound,3%
same,inhibition at 10 µM,[35]; 10 µM compound,-2%
same,inhibition at 10 µM,[36]; 10 µM compound,4%
